Experimental data published in article PMC2009897, “Comparison of mutagenesis and malignant transformation by dihydrodiols from benz[a]anthracene and 7,12-dimethylbenz[a]anthracene” (British Journal of Cancer, 1979).
Values joined by “and” are separate entries in the source; they are usually repeats but may differ in a detail not shown here. Identical values can stand only once. Like-named read-outs stand apart in the source and are kept apart here. One block for each compound: values may come before it.

Tests used:
M2 mouse fibroblasts [1] = test: Plating efficiency of M2 mouse fibroblasts; type: cell-based
[2] = system: Salmonella typhimurium TA100; conditions: cited from earlier work; for Mutagenic activity in Salmonella typhimurium TA100: presence of mono-oxygenase systems, ref Wood et al., 1976; for Microsome-mediated mutagenic activity in S. typhimurium TA100: ref Malaveille et al., 1978
V79 cells = system: V79 cells; design: method as in Slaga et al., 1978; conditions: presence of mono-oxygenase systems; ref Slaga et al., 1978; cited from earlier work
[3] = system: V79 Chinese hamster cells; test: Cytotoxicity (plating efficiency) in V79 Chinese hamster cells; type: cell-based
mouse skin = conditions: cited from earlier work
newborn mice = system: newborn mice; design: method as in Wislocki et al., 1976; conditions: ref Wislocki et al., 1976; cited from earlier work
C3H/HeJ mice = conditions: 106 cells from 2 clones transformed by the compound, 3 mice/clone (6 mice), five weeks after injection
M2 mouse fibroblasts [4] = system: M2 mouse fibroblasts
M2 mouse fibroblasts [5] = conditions: cited from earlier work
[6] = system: V79 Chinese hamster cells; conditions: ref Wood et al. (1977a); cited from earlier work
[7] = system: V79 Chinese hamster cells

SMILES: O[C@@H]1C=Cc2ccc3cc4ccccc4cc3c2[C@H]1O (relative stereo) [trans-1,2-Dihydro-1,2-dihydroxy BA, trans-1,2-Dihydro-1,2-dihydroxy-BA]
Plating efficiency (%) in M2 cells (M2 mouse fibroblasts [1]; 1.2 µg/ml, 24 h, Table I): 44%
Plating efficiency (%) in M2 cells (M2 mouse fibroblasts [1]; 2.5 µg/ml, 24 h, Table I): 40%
Plating efficiency (%) in M2 cells (M2 mouse fibroblasts [1]; 5.0 µg/ml, 24 h, Table I): 37%
Plating efficiency (%) in M2 cells (M2 mouse fibroblasts [1]; 10.0 µg/ml, 24 h, Table I): 10%
Mutagenic activity in Salmonella typhimurium TA100 [2]: not found to be active
Mutagenic activity in V79 cells (V79 cells): not found to be active
Plating efficiency (%) in V79 cells ([3]; 1.2 µg/ml, 3 h, Table I): 99%
Plating efficiency (%) in V79 cells ([3]; 2.5 µg/ml, 3 h, Table I): 95%
Plating efficiency (%) in V79 cells ([3]; 5.0 µg/ml, 3 h, Table I): 89%
Plating efficiency (%) in V79 cells ([3]; 10.0 µg/ml, 3 h, Table I): 55%

SMILES: O[C@@H]1C=Cc2c(ccc3cc4ccccc4cc23)[C@H]1O (relative stereo) [trans-3,4-Dihydro-3,4-dihydroxy BA, trans-3,4-dihydro-3,4-dihydroxy-BA]
Plating efficiency (%) in M2 cells (M2 mouse fibroblasts [1]; 2.5 µg/ml, 24 h, Table I): 50%
Plating efficiency (%) in M2 cells (M2 mouse fibroblasts [1]; 5.0 µg/ml, 24 h, Table I): 38%
Plating efficiency (%) in M2 cells (M2 mouse fibroblasts [1]; 10.0 µg/ml, 24 h, Table I): 12%
Initiator of tumours on mouse skin (mouse skin; ref Wood et al., 1977b, Slaga et al., 1978): highly active
Mutagenic activity in Salmonella typhimurium TA100 [2]: active
Inducer of tumours in newborn mice (newborn mice): highly active
Mutagenic activity in V79 cells (V79 cells): active
Plating efficiency (%) in V79 cells ([3]; 2.5 µg/ml, 3 h, Table I): 93%
Plating efficiency (%) in V79 cells ([3]; 5.0 µg/ml, 3 h, Table I): 84%
Plating efficiency (%) in V79 cells ([3]; 10.0 µg/ml, 3 h, Table I): 56%

SMILES: Cc1c2ccccc2c(C)c2c3c(ccc12)[C@@H](O)[C@H](O)C=C3 (relative stereo) [trans-3,4-Dihydro-3,4-dihydroxy-DMBA, trans-3,4-dihydro-3,4-dihydroxy-DMBA]
Plating efficiency (%) in M2 cells (M2 mouse fibroblasts [1]; 0.12 µg/ml, 24 h, Table I): 31%
Plating efficiency (%) in M2 cells (M2 mouse fibroblasts [1]; 0.25 µg/ml, 24 h, Table I): 26%
Plating efficiency (%) in M2 cells (M2 mouse fibroblasts [1]; 0.5 µg/ml, 24 h, Table I): 25%
Plating efficiency (%) in M2 cells (M2 mouse fibroblasts [1]; 1.0 µg/ml, 24 h, Table I): 15%
Initiator of tumours on mouse skin (mouse skin; ref I. Chouroulinkov, personal communication): acts as an initiator of tumours on mouse skin
Microsome-mediated mutagenic activity in S. typhimurium TA100 [2]: high
Animals that developed malignant fibrosarcomas (C3H/HeJ mice): 6 animals
Induction of malignant transformation in M2 mouse fibroblasts (result in words) (M2 mouse fibroblasts [4]): induced mutations in V79 cells and malignant transformation in M2 mouse fibroblasts
Malignant transformation in M2 cells compared with the parent hydrocarbon (M2 mouse fibroblasts [4]): more active than the parent hydrocarbon
Plating efficiency (%) in V79 cells ([3]; 0.12 µg/ml, 3 h, Table I): 67%
Plating efficiency (%) in V79 cells ([3]; 0.25 µg/ml, 3 h, Table I): 58%
Plating efficiency (%) in V79 cells ([3]; 0.5 µg/ml, 3 h, Table I): 50%
Plating efficiency (%) in V79 cells ([3]; 1.0 µg/ml, 3 h, Table I): 43%

SMILES: O[C@@H]1c2ccccc2-c2cc3ccccc3cc2[C@H]1O (relative stereo) [trans-5,6-Dihydro-5,6-dihydroxy BA, trans-5,6-Dihydro-5,6-dihydroxy-BA]
Plating efficiency (%) in M2 cells (M2 mouse fibroblasts [1]; 2.5 µg/ml, 24 h, Table I): 44%
Plating efficiency (%) in M2 cells (M2 mouse fibroblasts [1]; 5.0 µg/ml, 24 h, Table I): 42%
Plating efficiency (%) in M2 cells (M2 mouse fibroblasts [1]; 10.0 µg/ml, 24 h, Table I): 40%
Plating efficiency (%) in V79 cells ([3]; 2.5 µg/ml, 3 h, Table I): 85%
Plating efficiency (%) in V79 cells ([3]; 5.0 µg/ml, 3 h, Table I): 74%
Plating efficiency (%) in V79 cells ([3]; 10.0 µg/ml, 3 h, Table I): 59%

SMILES: Cc1c2c(c(C)c3ccccc13)[C@@H](O)[C@H](O)c1ccccc1-2 (relative stereo) [trans-5,6-Dihydro-5,6-dihydroxy-DMBA, trans-5,6-dihydro-5,6-dihydroxy-DMBA]
Plating efficiency (%) in M2 cells (M2 mouse fibroblasts [1]; 1.0 µg/ml, 24 h, Table I): 28%
Plating efficiency (%) in M2 cells (M2 mouse fibroblasts [1]; 5.0 µg/ml, 24 h, Table I): 28%
Plating efficiency (%) in M2 cells (M2 mouse fibroblasts [1]; 10.0 µg/ml, 24 h, Table I): 20%
Induction of malignant transformation in M2 mouse fibroblasts (result in words) (M2 mouse fibroblasts [4]): inactive in both test systems
Transformed foci/103 survivors (M2 mouse fibroblasts [4]): 0
Transformed foci/dishes treated (M2 mouse fibroblasts [4]): 0/10
Plating efficiency (%) in V79 cells ([3]; 1.0 µg/ml, 3 h, Table I): 80%
Plating efficiency (%) in V79 cells ([3]; 5.0 µg/ml, 3 h, Table I): 73%
Plating efficiency (%) in V79 cells ([3]; 10.0 µg/ml, 3 h, Table I): 57%

SMILES: O[C@@H]1C=Cc2cc3c(ccc4ccccc43)cc2[C@H]1O (relative stereo) [trans-8,9-Dihydro-8,9-dihydroxy-BA, trans-8,9-dihydro-8,9-dihydroxy-BA]
Plating efficiency (%) in M2 cells (M2 mouse fibroblasts [1]; 2.5 µg/ml, 24 h, Table I): 44%
Plating efficiency (%) in M2 cells (M2 mouse fibroblasts [1]; 5.0 µg/ml, 24 h, Table I): 39%
Plating efficiency (%) in M2 cells (M2 mouse fibroblasts [1]; 10.0 µg/ml, 24 h, Table I): 30%
Plating efficiency (%) in V79 cells ([3]; 2.5 µg/ml, 3 h, Table I): 57%
Plating efficiency (%) in V79 cells ([3]; 5.0 µg/ml, 3 h, Table I): 54%
Plating efficiency (%) in V79 cells ([3]; 10.0 µg/ml, 3 h, Table I): 53%

SMILES: Cc1c2c(c(C)c3c1ccc1ccccc13)C=C[C@@H](O)[C@@H]2O (relative stereo) [trans-8,9-Dihydro-8,9-dihydroxy-DMBA, trans-8,9-dihydro-8,9-dihydroxy-DMBA]
Plating efficiency (%) in M2 cells (M2 mouse fibroblasts [1]; 0.25 µg/ml, 24 h, Table I): 26%
Plating efficiency (%) in M2 cells (M2 mouse fibroblasts [1]; 0.5 µg/ml, 24 h, Table I): 22%
Plating efficiency (%) in M2 cells (M2 mouse fibroblasts [1]; 1.0 µg/ml, 24 h, Table I): 7%
Activity in M2 cells (malignant transformation), earlier observations (M2 mouse fibroblasts [5]): active
Microsome-mediated mutagenic activity in S. typhimurium TA100 [2]: some mutagenic activity
Induction of malignant transformation in M2 mouse fibroblasts (result in words) (M2 mouse fibroblasts [4]): induced mutations in V79 cells and malignant transformation in M2 mouse fibroblasts
Malignant transformation in M2 cells compared with the parent hydrocarbon (M2 mouse fibroblasts [4]): more active than the parent hydrocarbon
Plating efficiency (%) in V79 cells ([3]; 0.25 µg/ml, 3 h, Table I): 62%
Plating efficiency (%) in V79 cells ([3]; 0.5 µg/ml, 3 h, Table I): 45%
Plating efficiency (%) in V79 cells ([3]; 1.0 µg/ml, 3 h, Table I): 32%

SMILES: O[C@@H]1C=Cc2cc3ccc4ccccc4c3cc2[C@H]1O (relative stereo) [trans-10,11-Dihydro-10,11-dihydroxy-BA, trans-10,11-dihydro-10,11-dihydroxy-BA]
Plating efficiency (%) in M2 cells (M2 mouse fibroblasts [1]; 2.5 µg/ml, 24 h, Table I): 44%
Plating efficiency (%) in M2 cells (M2 mouse fibroblasts [1]; 5.0 µg/ml, 24 h, Table I): 37%
Plating efficiency (%) in M2 cells (M2 mouse fibroblasts [1]; 10.0 µg/ml, 24 h, Table I): 29%

SMILES: Cc1c2c(c(C)c3c1ccc1ccccc13)[C@@H](O)[C@H](O)C=C2 (relative stereo) [trans-10,11-Dihydro-10,11-dihydroxy-DMBA, trans-10,11-dihydro-10,11-dihydroxy-DMBA]
Plating efficiency (%) in M2 cells (M2 mouse fibroblasts [1]; 0.25 µg/ml, 24 h, Table I): 30%
Plating efficiency (%) in M2 cells (M2 mouse fibroblasts [1]; 0.5 µg/ml, 24 h, Table I): 26%
Plating efficiency (%) in M2 cells (M2 mouse fibroblasts [1]; 1.0 µg/ml, 24 h, Table I): 11%
Induction of malignant transformation in M2 mouse fibroblasts (result in words) (M2 mouse fibroblasts [4]): inactive in both test systems
Transformed foci/103 survivors (M2 mouse fibroblasts [4]): 0
Plating efficiency (%) in V79 cells ([3]; 0.25 µg/ml, 3 h, Table I): 76%
Plating efficiency (%) in V79 cells ([3]; 0.5 µg/ml, 3 h, Table I): 68%
Plating efficiency (%) in V79 cells ([3]; 1.0 µg/ml, 3 h, Table I): 44%

SMILES: OC1c2cc3ccc4ccccc4c3cc2C2OC2C1O (single isomer, unassigned) [anti-isomer, benz[a]anthracene 8,9-diol 10,11-oxide]
Plating efficiency (%) in M2 cells (M2 mouse fibroblasts [1]; 1.2 µg/ml, 24 h, Table II): 26%
Plating efficiency (%) in M2 cells (M2 mouse fibroblasts [1]; 2.5 µg/ml, 24 h, Table II): 12%
Plating efficiency (%) in M2 cells (M2 mouse fibroblasts [1]; 5.0 µg/ml, 24 h, Table II): 6%
Induction of mutations in V79 cells, anti versus syn isomer [6]: more active than the syn
Plating efficiency (%) in V79 cells ([3]; 0.6 µg/ml, 3 h, Table II): 57%
Plating efficiency (%) in V79 cells ([3]; 1.2 µg/ml, 3 h, Table II): 48%
Plating efficiency (%) in V79 cells ([3]; 2.5 µg/ml, 3 h, Table II): 41%
Plating efficiency (%) in V79 cells ([3]; 5.0 µg/ml, 3 h, Table II): 35%

Induction of malignant transformation in M2 mouse fibroblasts (result in words) (M2 mouse fibroblasts [4]): inactive
SMILES: OC1c2cc3ccc4ccccc4c3cc2C2OC2C1O (single isomer, unassigned) [syn-isomer, benz[a]anthracene 8,9-diol 10,11-oxide]
Plating efficiency (%) in M2 cells (M2 mouse fibroblasts [1]; 1.2 µg/ml, 24 h, Table II): 47%
Plating efficiency (%) in M2 cells (M2 mouse fibroblasts [1]; 2.5 µg/ml, 24 h, Table II): 49%
Plating efficiency (%) in M2 cells (M2 mouse fibroblasts [1]; 5.0 µg/ml, 24 h, Table II): 30%
Induction of mutations to 8-azaguanine resistance in V79 cells (result in words) [7]: mutagenic
Plating efficiency (%) in V79 cells ([3]; 0.6 µg/ml, 3 h, Table II): 56%
Plating efficiency (%) in V79 cells ([3]; 1.2 µg/ml, 3 h, Table II): 50%
Plating efficiency (%) in V79 cells ([3]; 2.5 µg/ml, 3 h, Table II): 49%
Plating efficiency (%) in V79 cells ([3]; 5.0 µg/ml, 3 h, Table II): 48%

SMILES: c1ccc2cc3c(ccc4ccccc43)cc2c1 [BA, benz[a]anthracene]
Plating efficiency (%) in M2 cells (M2 mouse fibroblasts [1]): 32% and 29%
Induction of mutations to 8-azaguanine resistance in V79 cells (result in words) [7]: inactive
Plating efficiency (%) in V79 cells [3]: 82% and 70%

SMILES: Cc1c2ccccc2c(C)c2c1ccc1ccccc12 [DMBA, 7,12-dimethylbenz[a]anthracene]
Plating efficiency (%) in M2 cells (M2 mouse fibroblasts [1]): 26% and 24%
Induction of mutations to 8-azaguanine resistance in V79 cells (result in words) [7]: inactive
Induction of malignant transformation in M2 mouse fibroblasts (result in words) (M2 mouse fibroblasts [4]): some activity
Plating efficiency (%) in V79 cells [3]: 63% and 39%
